# Reference: patent US10596137B2, “Medium chain fatty acids and their triglycerides for treating anxiety” (NESTEC S.A., priority 2015, dated 2020)
# “Also recorded” adds a separate entry of the source.
# Test: Temporal dynamics of plasma and brain ketones after octanoic or decanoic acid ingestion
# Type: in vivo, rat
# Details: after ingestion (oral gavage); for plasma and brain β-HB (ketone) levels: kinetics
# Experimental: Blood was drawn from the tail vein 7 days after initiation of treatment and trunk blood was collected during sacrifice. Blood was centrifuged and plasma samples were analysed for beta-hydroxybutyrate using a colorimetric kit (Cayman, US). For measurement of brain ketones, sample preparation involved liquid/liquid extraction of 50 μl brain tissue supernatant (pH 2), and extract derivatization with MSTFA (silylation). Analysis of BHB was performed via GC/MS, int. Standard 13C2-3-OH-But, m/z 233 (3-OH-But), m/z 118 (13C2-3-OH-But), with a calibration of 2-24 μg/ml (water); LOQ: 2 μg/ml, LOD: 0.7 μg/ml.
# Control rats received oral gavage of sunflower oil, as described above. MCT8 and MCT10 received oral gavage of octanoic acid or decanoic acid, respectively. Rats were sacrificed and trunk blood, portal vein blood and brain, pancreas and liver were collected as indicated.
structure (smiles),measurement,setting,value
CCCCCCCCCC(=O)O [decanoic acid],plasma and brain β-HB (ketone) levels,,longer-lasting increase; also recorded: prolonged increase
CCCCCCCC(=O)O [octanoic acid],plasma and brain β-HB (ketone) levels,,more rapid increase; also recorded: rapid increase
same,plasma ketone levels,octanoic compared to decanoic acid,increased more rapidly
